Measured values taken from a melting point compilation (Tetko et al.; mined from patent text by program, amines drawn as free bases though some values may be those of a salt).

Row | melting point | SMILES
1 | 202 to 204 °C | CC(C)(C)C(=O)Nc1ccc2cc3c(cc2c1)CCCC3
2 | < 70 °C | Cc1cc(OCCN2CCOCC2)nn1-c1ccc2c(O)cccc2c1
3 | 134 to 136 °C | O=C(CCN1CCN(c2ccnc3ccccc23)CC1)c1csc2ccccc12
4 | > 250 °C | Cc1c2c(nn1C)c(N)nc1ccccc12
5 | 116 to 117 °C | CS(=O)(=O)CCCCC(c1cc(Cl)ccc1F)S(=O)(=O)c1ccc(Cl)cc1 (centres undefined)
6 | 194 to 196 °C | CN(C)N=Nc1c(Br)csc1C(N)=O
7 | 155 to 156 °C | c1nc2cc3c(cc2[nH]1)OCO3
8 | 103 to 105 °C | O=C1C[C@@H]2[C@@H](CC[C@H](CCc3ccccc3)OC3CCCCO3)[C@H](OC(=O)c3ccc(-c4ccccc4)cc3)C[C@@H]2O1 (some centres undefined)
9 | 100 to 102 °C | COC(=O)c1[nH]ccc1O
10 | 162 to 164 °C | NS(=O)(=O)c1sc2ccccc2c1CCO
11 | 113 to 114 °C | COC(=O)c1ccccc1C1=NC(C)(C(C)C)C(=O)N1 (centres undefined)
12 | 196 to 200 °C | O=S1(=O)NC(C2CCCCC2)Nc2cc3c(cc21)OCCO3 (centres undefined)
13 | 116 to 120 °C | CN1C(=O)[C@@H](NC(=O)OC(C)(C)C)CSc2ccccc21
14 | 155 to 157 °C | COC(=O)[C@H](CCCO)NC(=O)[C@H](Cc1ccccc1)NC(=O)OCc1ccccc1
15 | 106 to 108 °C | CC1C(=O)N(c2ccccc2)C(=S)N1c1ccc(Oc2ccc(O)cc2)cc1 (centres undefined)
16 | 82.5 to 85.5 °C | NS(=O)(=O)Oc1ccc(F)cc1
17 | 155 to 157 °C | O=C1NCCN1C1CCN(CCC2COc3ccccc3O2)CC1 (centres undefined)
18 | 108 to 111 °C | OC(c1cccnc1)c1ccc(Cl)cc1Cl (centres undefined)
19 | 263 to 264 °C | CC1(C)Oc2ccc(C#N)cc2[C@@H](NC(=NC#N)N2CCCC2)[C@@H]1O (relative stereo)
20 | 117 to 118 °C | CN(C(=O)C(C)(C)c1cc(C(F)(F)F)cc(C(F)(F)F)c1)c1cnc(NCCO)cc1-c1ccccc1Cl
21 | 57 to 59 °C | CCCCCCCCCCCCCCCCCNC(=O)OCCOCCOC(=O)N(Cc1ccccn1)C(=O)OCC
22 | 101 °C | CCCOC(=O)Cc1cc(O)c(C)cc1O
23 | 134 °C | O=c1[nH]c2ccccc2n1CCCN1CCC(O)(c2ccc(Cl)cc2)CC1
24 | 132 °C | CC(=O)COc1ccc2ccc(Oc3c(Cl)cc(C(F)(F)F)cc3Cl)cc2c1

Row | melting point | SMILES
25 | 60 to 67 °C | Cc1cc(NNC(=O)OC(C)(C)C)c([N+](=O)[O-])c(N(Cc2ccccc2)Cc2ccccc2)n1
26 | 219 to 220 °C | CS(=O)(=O)c1ccc(C(=O)Nc2ccc(-n3nc(C(F)(F)F)cc3C(F)(F)F)cc2)c(Cl)c1
27 | 220 to 222 °C | Cc1scc2c1N(C(=O)N1CC3CN(C)CC3C1)c1ccccc1NC2=O (centres undefined)
28 | 70 to 72 °C | CCCCc1nc2sccc2c(=O)n1CCC
29 | 129 °C | COc1ccc(C(=O)COc2ccc(C(=O)OCc3ccccc3)c(O)c2)cc1C12CC3CC(CC(C3)C1)C2
30 | 190 to 191 °C | O=C1CSc2cccc(F)c2N1
31 | 69 °C | COC(=O)Cc1cccc(NC(=O)NCC(=O)N2[C@@H](c3ccccc3)SC[C@H]2C(=O)OC(C)(C)C)c1
32 | 48 to 50 °C | CCCCCCCCOC(=O)CCCCCNC(=O)c1cc(OCc2ccccc2)ccc1OCc1ccccc1
33 | 90 to 93 °C | C(OCC1CO1)C1CO1 (centres undefined)
34 | 155 to 157 °C | COc1ccc(NC(=O)NCC2(c3ccccc3)CCCCC2)cc1
35 | 156 to 158 °C | O=C(C1CC=CCC1)C1CCC2C(C=CC3=CCCc4c3n2c2ccncc42)C1 (centres undefined)
36 | 201 °C | N#Cc1ncc(F)cc1O
37 | > 240 °C | CCc1nc2c(N)nc3ccc(O)cc3c2n1C
38 | 152 °C | CC(C)(C)NS(=O)(=O)c1ccc(C(=O)c2ccc(Cl)cc2)cc1F
39 | 147 to 152 °C | CN(C)c1ccc(C(=O)N(CCN2CCC(C(=O)c3ccc(F)cc3)CC2)c2cccnc2)cc1
40 | 218 to 220 °C | CCOC(=O)c1cn(C2CC2)c2c(F)c(CCc3cc(Cc4cnc(N)nc4N)cc(OC)c3OC)c(F)cc2c1=O
41 | 127 to 130 °C | O=C(NCc1ncc(C(F)(F)F)cc1Cl)c1ccccc1C(F)(F)F
42 | 80 to 81 °C | O=c1n(CCCF)nnn1-c1cc([N+](=O)[O-])c(Cl)cc1F
43 | 190 to 191 °C | Cc1[nH]cnc1CCNC(=NCCSCc1nc[nH]c1C)NC#N
44 | 124 to 126 °C | CN(C)C=Cc1cccc(CC(=O)O)c1[N+](=O)[O-]
45 | 213 to 216 °C | O=C(Nc1ccc(F)cc1F)Nc1cnc2cnccc2c1-c1ccccc1Cl
46 | 132 °C | CCn1c2ccc(C(=O)CC(C)=O)cc2c2cc(C(=O)c3ccc(F)cc3C)ccc21
47 | 173 °C | CC(C)c1ccc(N(Cc2ccc(N(C)C)cc2)C(=O)C2CCOc3cc(O)ccc32)cc1 (centres undefined)
48 | 234 to 235 °C | CC(C)(O)c1ccc(N2CCN(c3ccncc3)CC2)cc1

Row | melting point | SMILES
49 | 290 to 291 °C | NC(=O)c1ccc(C(=O)Nc2ccc(-n3nc(C(F)(F)F)cc3C(F)(F)F)cc2)cc1
50 | 112 to 113 °C | O=C(O)Cc1ccc(OCc2ccccc2)c(OCc2ccccc2)c1
51 | 116 °C | COC[C@H]1CN(c2coc3cc(C(=O)OC)ccc23)C(=O)O1
52 | 66 °C | CCOC(=O)[C@@H]1O[C@@H]1c1ccc(C)cc1
53 | 60 to 63 °C | Cc1nnc(SCc2ccccc2)s1
54 | 84 to 85 °C | O=C(Cc1ccccc1)c1ccc(Cl)c(Cl)c1
55 | 103 to 105 °C | O=CN(N=Cc1cccs1)c1ccc(Cl)cc1
56 | 218 to 224 °C | COc1cc(C(=O)CN2CCN(c3ccncc3)CC2)ccc1OCC(=O)O
57 | 89 to 90 °C | COc1cccc(-c2cnn(-c3ccccn3)c2)c1
58 | 260 °C | CC(=O)Nc1nc2c(Oc3cc(-c4ccc(C(F)(F)F)cc4NC(=O)C4CCCCN4C(C)C)ncn3)cccc2s1 (centres undefined)
59 | 274 to 276 °C | Cc1c(C(=O)c2sc(Nc3ccc(S(N)(=O)=O)cc3)nc2N)sc2ccccc12
60 | 110 to 111 °C | O=C(NCCO)c1cc(-c2cccc3cc(Cc4cccc(C(F)(F)F)c4)sc23)ncc1F
61 | 143 to 144 °C | COc1ccc(CNc2nc(SC)ncc2C(=O)NCc2ccccn2)cc1Cl
62 | 201 °C | CC(C)(C)OC(=O)Nc1ccc(-c2ccccc2F)cc1NC(=O)CC(=O)c1ccc(C#N)s1
63 | 142 to 144 °C | NC(=O)CN1C(=O)C[C@@H]2CCC[C@@H]21 (relative stereo)
64 | 195 to 196 °C | CNc1nnc(-c2ccc3ncn(-c4ccc(OC(F)F)cc4)c3c2)o1
65 | 240 to 245 °C | CC(C)n1cc(-c2nc(C(N)=O)c(N)nc2-c2ccccc2)ccc1=O
66 | 80 to 82 °C | O=C(Cl)N1CC(Oc2ccccc2Cl)C1
67 | 86 to 87 °C | Fc1ccc2c(C3CCN(CC4COc5ccccc5O4)CC3)noc2c1 (centres undefined)
68 | 104 to 106 °C | N#CC(C#N)=C1N(CCN2CCCCC2)CCN1CCN1CCCCC1
69 | 160 to 161 °C | CSc1ccc(-c2nn(Cc3cccnc3)c(=O)cc2-c2ccc(F)cc2)cc1
70 | 101 °C | O=C(OCc1ccccc1)[C@@H]1CCC(=O)N1C(=O)c1ccccc1
71 | 146 to 151 °C | O=C1CCCc2nc3cc(F)ccc3c(NCc3ccccc3C(F)(F)F)c21
72 | 154 to 156 °C | CN1CCN(C(=O)c2ccc(N)cc2C(F)(F)F)CC1

Row | melting point | SMILES
73 | 147 to 149 °C | O=C(CCCCN1CCC(Cc2ccccc2)CC1)c1ccc2c(c1)Cc1cc(C(=O)CCCCN3CCC(Cc4ccccc4)CC3)ccc1-2
74 | 192 °C | COC(=O)c1cc(C(=O)c2ncc3ccccn23)ccc1N
75 | 198 to 200 °C | O=C(NC1CCN(Cc2ccccc2)CC1)c1n[nH]c2ccccc12
76 | 144 to 146 °C | Cn1cnc2c(N(Cc3ccccc3)Cc3ccccc3)nc(Cl)nc21
77 | 201 to 204 °C | O=C(O)C1CC(=O)N(c2ccc(O)cc2)C1 (centres undefined)
78 | 115 to 116 °C | FC(F)(F)Oc1ccc(Cn2cnc3c(Cl)ncnc32)cc1
79 | 190 to 192 °C | OC(Cn1cncn1)(Cn1cncc1C(F)(F)F)c1ccc(Cl)cc1Cl (centres undefined)
80 | 230 to 235 °C | NC(=O)c1ccccc1NC(=O)c1ccc2c(c1)CCO2
81 | 136 to 138 °C | CSC1C(=O)Nc2ccc(C(F)(F)F)cc21 (centres undefined)
82 | 108 to 109 °C | CC(C)(c1ccccc1)n1nnc(-c2ccccc2-c2ccc(CBr)cc2)n1
83 | 149 to 150 °C | CC(C)(C)NC(=O)[C@@H]1C[C@H](Cl)CN1C(=O)OC(C)(C)C
84 | 73 to 75 °C | O=[N+]([O-])c1ccc(COP(=O)(COS(=O)(=O)C(F)(F)F)OCc2ccc([N+](=O)[O-])cc2)cc1
85 | 110 to 111 °C | COc1ccc(CN2C(=O)[C@@H](NC(=O)Cc3ccccc3)[C@H]2CN=[N+]=[N-])c(OC)c1 (relative stereo)
86 | 115 to 123 °C | CC(C)C(OC(=O)NC(C)(Cc1ccccc1)C(=O)NC(C)(C)c1ccccc1)c1ccccc1 (centres undefined)
87 | 196 to 198 °C | CCN1c2ncc(CCc3ccc(N(C)S(C)(=O)=O)cc3)cc2C(=O)N(C)c2ccc(Cl)nc21
88 | 120 °C | CC(=O)Nc1ccc(OCCCBr)cc1
89 | 241 to 242 °C | O=C(O)c1ccc(Cn2nnc(-c3cccc(I)c3)n2)cc1
90 | 156 °C | CC(C)(O)C(=O)Nc1ccc(S(=O)(=O)c2ccccc2)cc1F
91 | 100 °C | OCC1OC(n2cnc3c(OCC4CC4)ncnc32)CC1F (centres undefined)
92 | 78 to 78.5 °C | C=CCC(CO)(NC)c1ccc(Cl)c(Cl)c1 (centres undefined)
93 | 206 to 207 °C | COc1ccc(Cl)cc1-n1c(-c2cc(C(F)(F)F)cc(C(F)(F)F)c2)n[nH]c1=O
94 | 141 to 143 °C | CC(C)(C)OC(=O)Oc1ccc(C(=O)c2ccc(OC(=O)OC(C)(C)C)cc2)cc1

Row | SMILES | melting point
95 | CNC(=O)N1N=C(c2ccc([N+](=O)[O-])c(C)c2)c2cc(Cl)ccc2C=C1C | 196 to 198 °C
96 | CN1Cc2cccnc2C(N2CCN(C(=O)Cc3ccncc3)CC2)c2ccc(Cl)cc21 (centres undefined) | 83 to 87 °C
97 | CCC[C@H]1[C@@H](O)CC(=O)N1c1ccc(C#N)c(Cl)c1 | 143 to 146 °C
98 | COC1CCC2C3C(C)CC4=CC(=O)C(C)CC4(C)C3CCC12C (centres undefined) | 123 to 126 °C
99 | CCN1CNC(=N[N+](=O)[O-])N(Cc2ccc(Cl)nc2)C1 | 124 to 125 °C
